From patent publication US11912645B2, “Lipopeptide compounds for the treatment of pain disorders” (INSERM (Institut National de la Santé et de la Recherche …, priority 2017, dated 2024)

Tests used:
[1] = test system: duodenal preparations; assay: Ex vivo duodenal mechanical contraction (isotonic sensors); parameters: species or system mouse; conditions: 10 μM, vs control and vehicle
Experimental: FIG. 6: C12-Asn-GABA inhibits capsaicin-induced visceral hypersensitivity without altering Intestinal contraction. Mice received intracolonic administration of C12-Asn-GABA (10 μM; black symbols) or vehicle (40% ethanol; white symbols) and 30 minutes or 4 hours later colon (A) and blood (B) were harvested in order to quantify C12-Asn-GABA by LC-MS/MS. Data are expressed as mean±SEM, n=8 mice per group. […] Mice received intracolonic administration of C12-Asn-GABA (10 μM; black symbols) or vehicle (40% ethanol; white symbols) and 30 minutes or 4 hours later an intracolonic administration of capsaicin (100 μg/mouse; square) or its vehicle (40% ethanol; circle). Fifteen minutes after capsaicin or vehicle treatment, visceromotor response (VMR) to increasing pressures of colorectal distension was performed. Data are expressed as mean±SEM, n=7-8 mice per group. […] Ex vivo measurement of duodenal mechanical contraction frequency (B) and amplitude (C) in response to Krebs-Ringer solution (control; white bar), to DMSO 0.2% (vehicle; gray bar) or to C12-Asn-GABA (10 μM; black bar). Data are expressed as mean±SEM, n=5-6 per group. […]
IBS patients are characterized by diverse alterations of gut transit: diarrhea, constipation or mixed^1, thus a drug impairing bowel motility could limit its putative use in this pathology. We evaluated whether C12-Asn-GABA was capable of impairing duodenal motility. […]

[2] = test system: mouse sensory neurons activated by mix of GPCR agonists (histamine, serotonin, bradykinin); assay: Calcium flux in sensory neurons activated by mix of GPCR agonists; format: cell-based; conditions: serotonin 10 μM each, pretreatment with increasing amounts of compound
Experimental: (§1) FIG. 4: C12-Asn-GABA inhibits neuronal activation via the GABA B receptor. Amplitude of intracellular calcium mobilization (ΔF/F; right panel) in mouse sensory neurons and percentage of responding neurons (left panel) pretreated with increasing amounts of C12-Asn-GABA (black circle) or vehicle (HBSS; white circle) and treated with capsaicin (125 nM; A) or a mix of G protein coupled receptor agonists (histamine, serotonin and bradykinin 10 μM each; B). Data are represented as mean±SEM; n=4 independent experiments of 3 wells per condition and 30-80 neurons per well. […] Percentage of responding neurons pretreated with increasing amounts of saclofen (black circle) or vehicle (HBSS; white circle) and treated with C12-Asn-GABA (10 μM) and capsaicin (125 nM; C) or a mix of G protein coupled receptor agonist (histamine, serotonin and bradykinin 10 μM each; D). Data are represented as mean±SEM; n=4 independent experiments of 3 wells per condition and 30-80 neurons per well.
Male C57B16 mice (6-8 weeks) were used to produce primary cultures of dorsal root ganglia (DRG) sensory neurons for calcium flux experiments, and to perform studies of colorectal distention and intestinal isotonic contraction. All procedures were approved by Institutional Animal Care Committees (CEEA 122). […]

[3] = test system: mouse sensory neurons activated by capsaicin; assay: Calcium flux in sensory neurons activated by capsaicin (TRPV1 agonist); format: cell-based; conditions: capsaicin 125 nM; pretreatment with increasing amounts of compound
Experimental: as §1
FIG. 7: C14-Asn-GABA inhibits neuronal activation by capsaicin. Amplitude of intracellular calcium mobilization (F/F; A) in mouse sensory neurons and percentage of responding neurons (B) pretreated with 10 μM of C14-Asn-GABA (black bar) or vehicle (HBSS; white bar) and treated with capsaicin (125 nM). Data are represented as mean±SEM; n=3 independent experiments of 3 wells per condition and 35-82 neurons per well.
Male C57B16 mice (6-8 weeks) were used to produce primary cultures of dorsal root ganglia (DRG) sensory neurons for calcium flux experiments, and to perform studies of colorectal distention and intestinal isotonic contraction. All procedures were approved by Institutional Animal Care Committees (CEEA 122).
To determine whether C12-Asn-GABA or C12-Asn-BABA is capable of signaling to sensory nerves, calcium mobilization studies were performed on primary cultures of mouse dorsal root ganglia (DRG) neurons. […]

With `CCCCCCCCCCCC(=O)NC(CC(N)=O)C(=O)NCCCC(=O)O` (stereo not shown) [C12-Asn-GABA, C11 C(O)-Asn-gamma-aminobutyric acid] the “amplitude of intestinal contractions” value [1] was “nor the amplitude of intestinal contractions”, the “frequency of duodenal contractions” value [1] was “impairs neither the frequency of contractions” and the “calcium flux increase induced by mix of GPCR agonists (% responding neurons, amplitude ΔF/F)” value [2] was “prevented by C12-Asn-GABA pretreatment in a dose-dependent manner”. The “calcium flux increase induced by capsaicin (% responding neurons, amplitude ΔF/F)” value [3] was “prevented by C12-Asn-GABA pretreatment in a dose-dependent manner”.
